Measured values taken from publication PMC4423729 (Neuropharmacology, 2010).

Tests used:
isolated aortic rings = assay: tPA induced vasodilation: phenylephrine contraction of isolated aortic rings; details: rtPA 1 nM, peptide 100 nM; EC50 of phenylephrine contraction; 3 experiments
rtPA = rtPA (Homo sapiens, UniProt P00750); assay: Plasminogen activator activity; type: biochemical; details: Glu-plasminogen 100 nM, Spectrazyme PL 500 μM, PBS, 37°C, A405, 3 experiments
BBB permeability [1] = assay: BBB permeability post ischemia; type: in vivo, rat; details: Evans blue, 12 animals/group
[2] = for solubility in an aqueous environment: qualitative
BBB permeability [3] = assay: BBB permeability by extravasation of radiolabeled fibrinogen in rats; type: in vivo, rat; details: PAI-1 or peptide 1 mg/kg IV together with rtPA 1 mg/kg, 6 animals/group
Sprague-Dawley rats = details: rat, in vivo

rtPA, sequence (P00750 36-562): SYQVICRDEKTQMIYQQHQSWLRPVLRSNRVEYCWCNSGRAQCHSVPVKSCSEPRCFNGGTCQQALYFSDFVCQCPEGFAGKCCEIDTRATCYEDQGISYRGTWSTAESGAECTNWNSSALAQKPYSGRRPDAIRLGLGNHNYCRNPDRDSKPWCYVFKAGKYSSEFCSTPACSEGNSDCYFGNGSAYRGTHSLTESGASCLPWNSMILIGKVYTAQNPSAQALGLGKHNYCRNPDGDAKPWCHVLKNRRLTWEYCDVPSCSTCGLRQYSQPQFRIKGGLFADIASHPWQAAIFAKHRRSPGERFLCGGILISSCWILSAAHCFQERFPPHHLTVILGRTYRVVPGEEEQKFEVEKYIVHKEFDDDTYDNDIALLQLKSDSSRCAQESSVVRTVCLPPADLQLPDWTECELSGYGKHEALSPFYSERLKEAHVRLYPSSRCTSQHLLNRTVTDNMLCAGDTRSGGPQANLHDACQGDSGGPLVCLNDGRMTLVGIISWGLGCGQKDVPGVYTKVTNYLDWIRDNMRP

Row | Compound | inhibition of rtPA-induced vasodilation (isolated aortic rings) | effect on the catalytic activity of rtPA (plasminogen activation) (rtPA) | inhibition of the late effect of rtPA on BBB permeability (BBB permeability [1]; peptide together with rtPA three hours after the filament was withdrawn) [%] | solubility in an aqueous environment [2] | inhibition of rtPA-induced permeation of radiolabeled fibrinogen (BBB permeability [3]) | effect on the catalytic activity of rtPA (plasminogen activation) (rtPA; listed as 18-aa- Phe^383) | maximal solubility ([2]; lyophilized peptide resuspended in 50% ethanol at 37°C, vortexed) [µg/mL] | BBB permeability post tMCAO (BBB permeability [1]; rtPA three hours after the filament was withdrawn) | effect of rtPA on mortality (Sprague-Dawley rats) | effect of rtPA on neurological severity score (NSS) (Sprague-Dawley rats) | mortality (Sprague-Dawley rats) [%]
1 | CC[C@H](C)[C@H](NC(=O)[C@H](CCC(=O)O)NC(=O)[C@H](CCC(=O)O)NC(=O)[C@@H]1CCCN1C(=O)[C@H](C)NC(=O)[C@H](CCSC)NC(=O)[C@H](CCCNC(=N)N)NC(C)=O)C(=O)N[C@H](C(=O)N[C@@H](CCSC)C(=O)N[C@@H](CC(=O)O)C(=O)N[C@@H](CCCNC(=N)N)C(=O)N1CCC[C@H]1C(=O)N[C@@H](Cc1ccccc1)C(=O)N[C@@H](CC(C)C)C(=O)N[C@@H](Cc1ccc(O)cc1)C(=O)N[C@H](C(=O)N[C@H](C(=O)N[C@@H](CCCNC(=N)N)C(N)=O)C(C)C)C(C)C)[C@@H](C)CC [18-aa-Tyr^383] | inhibited rtPA-induced vasodilation | without inhibiting the catalytic activity of rtPA | 96.7 | more soluble in an aqueous environment than the original sequence |  |  |  |  |  |  | 
2 | CC[C@H](C)[C@H](NC(=O)[C@H](CCC(=O)O)NC(=O)[C@H](CCC(=O)O)NC(=O)[C@@H]1CCCN1C(=O)[C@H](C)NC(=O)[C@H](CCSC)NC(=O)[C@H](CCCNC(=N)N)NC(C)=O)C(=O)N[C@H](C(=O)N[C@@H](CCSC)C(=O)N[C@@H](CC(=O)O)C(=O)N[C@@H](CCCNC(=N)N)C(=O)N1CCC[C@H]1C(=O)N[C@@H](Cc1ccccc1)C(=O)N[C@@H](CC(C)C)C(=O)N[C@@H](Cc1ccccc1)C(=O)N[C@H](C(=O)N[C@H](C(=O)N[C@@H](CCCNC(=N)N)C(N)=O)C(C)C)C(C)C)[C@@H](C)CC [18-aa] | inhibited vasodilation | without affecting the catalytic activity of rtPA |  | relatively insoluble | inhibited | without inhibiting the catalytic activity of rtPA | 200 |  |  |  | 
3 | Ac-RMAPEEIIMDR-NH2 [11-aa] | inhibited vasodilation | without affecting the catalytic activity of rtPA |  |  |  |  |  |  |  |  | 
4 | rtPA |  |  |  |  |  |  |  | re-opened the BBB | increased mortality | aggravated the neurological disability | 28.6±4.2
